Measurements taken from publication PMC11062894, “Protein-based bandpass filters for controlling cellular signaling with chemical inputs” (Nature Chemical Biology, 2023).
“And” between values parts separate entries of the source, which are not always exact repeats. Equal values may be shown once.

System: GEMS receptors with CBPA11 (BclXL–LD3 and BclXLhigh variants), STAT3-driven SEAP in HEK293T cells
Assay: GEMS SEAP reporter assay, CBPA11 (BclXLhigh, LD3-v and BclXL-v variants) with A-1155463
Assay type: cell-based
Design: key to Raw data (SEAP) / SEAP, replicate values / Raw data of Figure 5b / Raw data Figure 5e / Raw data of Independent repeat of CBPA11-v1 vs CBPA11-v1-LD3v3 / Raw data of Independent repeat of CBPA11-v3 vs CBPA11-v3-LD3v3 / Raw data of Figure 5b, CBPA11-v1-LD3v3 (SEAP reporter raw value, single replicate) / Raw data of Figure 5b, CBPA11-v1 (SEAP reporter raw value, single replicate): SEAP activity in U/L in culture supernatant
Description: To rationally design a CBP responding to a chemical input, we used BclXL as the druglow receptor, LD3 as the designed binder and a designed BclXL variant as the drughigh receptor (referred to as BclXLhigh) to construct a CBP responsive to BclXL inhibitors (Fig. 4a). To design BclXLhigh, we used a multistate design computational protocol described elsewhere[26] […] Thus, BclXLhigh-v(1–3) were chosen as the functional drughigh receptors, resulting in three A-1155463-controlled CBPs (referred to as CBPA11-v(1–3)) (Fig. 4c–e).
HEK293T cells were seeded in a 96-well plate 24 h before transfection. The transfection mix in each well consisted of 3 ng of constitutive human CMV promoter driven mammalian STAT3 expression vector (PhCMV-STAT3-pA), 30 ng of STAT3-induced reporter expression (OStat3-PhCMVmin-SEAP-pA) and 50 ng of expression vectors for each GEMS receptor chain (PSV40-IgK-(drughigh receptor)-EpoRm-IL-6RBm-pA and PSV40-IgK-(druglow receptor-GGGGSX3-LD3)-EpoRm-IL-6RBm-pA). For the specific drughigh receptor and druglow receptor used in the different cellular assays, they are indicated as wild type or with mutations. Then, plasmid DNA was mixed with 50 μl opti-MEM (Thermo Fisher) and 600 ng of polyethyleneimine (Polysciences, catalog no. 24765-1). For drug treatment experiments, drugs were added 12 h post-transfection and incubated with cells for 24 h before the SEAP reporter detection assay.
SEAP activity (U l^−1) in cell culture supernatants was quantified by kinetic measurements at 405 nm (1 minute per measurement for 30 cycles) of absorbance increase due to phosphatase-mediated hydrolysis of para-nitrophenyl phosphate (pNPP).
Binding affinities of SPR drug competition assays were calculated using three-parameter nonlinear regression in GraphPad Prism (v.8.3.0). Representative data of cell assays are presented as individual values and mean values (bars). n = 3 refers to biological replicates. All IC50 or EC50 values of cell assays reported were calculated using four-parameter nonlinear regression ± s.d. Bandpass features of cutoff concentrations and Bandwidth90% were estimated based on the curve fitted using bell-shaped curve nonlinear regression in GraphPad Prism (v.8.3.0). […]
Supplementary Figure 4: Design, screening and validation of BclXLhigh variants. a) Screening of BclXLhigh variants in the GEMS platform. […]
Dissociation constant measurement of BclXLhigh-v(1-3) and LD3. Equilibrium curves are fitted using […]
BclXLhigh-v1 (purple), BclXLhigh-v2 (blue), […]
a) Bcl2high-based bandpass filter designs were developed and to respond to different concentrations of […]
corresponding inhibitor. c) Screening of Bcl2high-based bandpass filter variants in the GEMS platform.
The designed binder LD3 was fused to the druglow-receptor (PSV40-IgK-Bcl2-LD3-EpoRm-IL-6RBm-pA) in one EpoR chain and Bcl2high variants with the insensitive Bcl2 (iBcl2) as control in the other EpoR chain (PSV40-IgK-Bcl2high-EpoRm-IL-6RBm-pA). HEK293T cells were transfected with indicated […]
the mean of six biological replicates ± s.d., overlaid with a scatter dot plot of the original data points.
(1 picture or pasted object on this page, not shown here)
Supplementary Figure 6: Binding affinities and drug resistances of Bcl2high-v(2,4,5) assessed by […]
a) Measurement of dissociation constants for Bcl2high-v(2,4,5) and LD3 interactions. Equilibrium curves […]
Bcl2high-v(2,4,5) measured by SPR. 5 μM of Bcl2 or indicated variants were mixed with 10 μM of […]
Bcl2high-v2 (red), Bcl2high-v4
Supplementary Figure 7: Screening of LD3 variants in CBPA11-v(1-3) and raw data of CBPA11-v(1,3) with LD3-v3 variant. a-c) Screening of LD3 and LD3-v(1-3) variants in complex with BclXL for more sensitive CBPA11-v1 (a), CBPA11-v2 (b), CBPA11-v3 (c) in the GEMS platform. The LD3 variants replaced the role of LD3 (PSV40-IgK-BclXL-LD3-v(1-3)-EpoRm-IL-6RBm-pA) in one EpoR chain and BclXLhigh-v(1-3) in the other EpoR chain (PSV40-IgK-BclXLhigh-V(1-3)-EpoRm-IL-6RBm-pA). HEK293T cells were transfected with […]

[1] = CBPA11-v3-BclXLv2, A-1155463 10000 nM
[2] = CBPA11-v3-LD3v3, A-1155463 1 nM
[3] = CBPA11-v3-LD3v3, A-1155463 3.18 nM
[4] = CBPA11-v3-LD3v3, A-1155463 10 nM
[5] = CBPA11-v3-LD3v3, A-1155463 31.8 nM
[6] = CBPA11-v3-LD3v3, A-1155463 100 nM
[7] = CBPA11-v3-LD3v3, A-1155463 318 nM
[8] = CBPA11-v3-LD3v3, A-1155463 1000 nM
[9] = CBPA11-v3-LD3v3, A-1155463 3180 nM

## CN(C)CC#Cc1ccc(OCCCc2sc(N3CCc4cccc(C(=O)Nc5nc6ccccc6s5)c4C3)nc2C(=O)O)c(F)c1 [A-1155463]
CBPA11-v3, A-1155463 1000 nM
  Normalized data Figure 5e: 81.2661 and 84.4942 and 85.1885
  Normalized data of Figure 5b: 77.1257 and 88.7382 and 83.2133
  Raw data of Figure 5b: 414.242 and 467.209 and 437.572
  Raw data of Independent repeat of CBPA11-v3 vs CBPA11-v3-LD3v3: 429.812 and 444.52 and 449.13
CBPA11-v3, A-1155463 3160 nM
  Raw data of Independent repeat of CBPA11-v3 vs CBPA11-v3-LD3v3: 188.374 and 250.833 and 293.834
CBPA11-v3, A-1155463 3180 nM
  Normalized data Figure 5e: 35.6165 and 47.6783 and 55.7329
  Normalized data of Figure 5b: 69.9852 and 73.5971 and 71.687
  Raw data Figure 5e: 250.833 and 293.834
  Raw data of Figure 5b: 375.891 and 387.491 and 376.961
CBPA11-v3, A-1155463 10000 nM
  Normalized data of Figure 5b: 33.3676 and 35.0593 and 32.1412
  Raw data Figure 5e: 69.4522 and 75.5808 and 84.1281
  Raw data of Figure 5b: 179.218 and 184.588 and 169.013
CBPA11-v3-BclXLv2, A-1155463 1 nM
  Normalized data Figure 5e: 21.2301 and 20.9054 and 25.1683
CBPA11-v3-BclXLv2, A-1155463 3.18 nM
  Normalized data Figure 5e: 36.7849 and 34.3141 and 39.7967
CBPA11-v3-BclXLv2, A-1155463 10 nM
  Normalized data Figure 5e: 81.6336 and 75.0518 and 82.9089
CBPA11-v3-BclXLv2, A-1155463 31.8 nM
  Normalized data Figure 5e: 90.6446 and 90.5045 and 89.528
CBPA11-v3-BclXLv2, A-1155463 100 nM
  Normalized data Figure 5e: 100
CBPA11-v3-BclXLv2, A-1155463 318 nM
  Normalized data Figure 5e: 94.0748 and 83.4986 and 97.6461
CBPA11-v3-BclXLv2, A-1155463 1000 nM
  Normalized data Figure 5e: 82.1634 and 70.2925 and 84.8015
CBPA11-v3-BclXLv2, A-1155463 3180 nM
  Normalized data Figure 5e: 56.5379 and 50.558 and 54.1989
[1]
  Normalized data Figure 5e: 20.2076 and 19.0615 and 22.8054
  Raw data Figure 5e: 80.3813 and 74.5359 and 94.7265
CBPA11-v3-LD3v3, A-1155463 0.01 nM
  Raw data of Independent repeat of CBPA11-v3 vs CBPA11-v3-LD3v3: 22.6826 and 23.3953 and 23.1684
[2]
  Normalized data of Figure 5b: 18.3263 and 15.7809 and 17.6916
  Raw data of Figure 5b: 15.5654 and 14.7861 and 18.9282
  Raw data of Independent repeat of CBPA11-v3 vs CBPA11-v3-LD3v3: 39.675 and 38.1934 and 39.412
CBPA11-v3-LD3v3, A-1155463 3.16 nM
  Raw data of Independent repeat of CBPA11-v3 vs CBPA11-v3-LD3v3: 41.6393 and 41.4109 and 44.6799
[3]
  Normalized data of Figure 5b: 21.7199 and 21.0211 and 18.3728
  Raw data of Figure 5b: 18.4478 and 19.6959 and 19.6571
[4]
  Normalized data of Figure 5b: 42.8939 and 42.6676 and 37.1804
  Raw data of Figure 5b: 36.4319 and 39.9778 and 39.7793
  Raw data of Independent repeat of CBPA11-v3 vs CBPA11-v3-LD3v3: 121.488 and 115.434 and 117.733
CBPA11-v3-LD3v3, A-1155463 31.6 nM
  Raw data of Independent repeat of CBPA11-v3 vs CBPA11-v3-LD3v3: 175.057 and 186.814 and 198.727
[5]
  Normalized data of Figure 5b: 100 and 85.1231 and 93.5368
  Raw data of Figure 5b: 84.9348 and 79.7569 and 100.075
[6]
  Normalized data of Figure 5b: 98.4645 and 100
  Raw data of Figure 5b: 83.6306
  Raw data of Independent repeat of CBPA11-v3 vs CBPA11-v3-LD3v3: 212.624 and 240.137 and 273.777
CBPA11-v3-LD3v3, A-1155463 316 nM
  Raw data of Independent repeat of CBPA11-v3 vs CBPA11-v3-LD3v3: 197.006 and 197.385 and 185.58
[7]
  Normalized data of Figure 5b: 66.0363 and 74.9346 and 74.5506
  Raw data of Figure 5b: 56.0878 and 70.2108 and 79.7618
[8]
  Normalized data of Figure 5b: 44.7107 and 39.495 and 38.775
  Raw data of Figure 5b: 37.975 and 37.0053 and 41.4854
  Raw data of Independent repeat of CBPA11-v3 vs CBPA11-v3-LD3v3: 89.9783 and 83.2851 and 69.3694
CBPA11-v3-LD3v3, A-1155463 3160 nM
  Raw data of Independent repeat of CBPA11-v3 vs CBPA11-v3-LD3v3: 42.2434 and 33.2038 and 38.7983
[9]
  Normalized data of Figure 5b: 16.4914 and 15.345 and 15.1706
  Raw data of Figure 5b: 14.007 and 14.3777 and 16.2311
